# Tested on: Human Heme Oxygenase-1 (HMOX-1)
# Test: ELISA assay to measure human heme oxygenase-1 (HMOX-1) in HepG2 lysate
# Assay type: cell-based
# Conditions: fold change of human HMOX1 protein levels relative to DMSO control, HepG2
# Procedure: Example 143. ELISA Assay to Measure Human Heme Oxygenase-1 (HMOX-1) in HepG2 lysate
# Reagents and Technical Notes:
# ELISA capture antibody, standard HO-1, detection antibody and streptavidin HRP were supplied in the DuoSet IC Human total HO-1 ELISA from R&D systems (DYC3776-2). The substrate cocktail was KPL LumiGLO reserve Chemiluminescent Substrate (54-71-00). PBS was Corning Cellgro Cell Culture (21-040-CV). 10×PBS+0.05% tween20 (PBST) was from KPL.
# All incubations of the plate were at room temperature (20° C.) in a closed drawer.
# The ELISA plate was processed manually. All loadings were with a multichannel pipet. Plates were emptied by shaking into the sink and tapping onto paper towels to remove any remaining reagent. Plate washing was accomplished by loading all wells with PBS+0.05% tween20 (PBST) using a squirt bottle, shaking the PBST out and tapping the plate onto paper towels.
# Preparation of the ELISA Plate: • 1. anti-HO-1 capture antibody was 1440 μg/ml after reconstitution in PBS. This antibody was diluted to 8 μg/ml in PBS and 50 μl per well was added to a 384 well greiner “lumitrac 200” plate. Incubated overnight. • 2. The plate was emptied and 100 μl PBS+1% BSA added to all wells. Incubated 90 minutes at room temperature.
# Preparation of HepG2 Lysate: • 1. Cells were cultured in a 96-well tissue culture plate washed with PBS and then the plate frozen at −70° C. overnight. Plates were allowed to warm to ice temperature in an ice bucket. 20 μl of PBS, 0.5% Triton X100, 1 mM EDTA with 1×HALT™ protease inhibitors was added to each well and the plates incubated on ice for 1 hour. • 2. The lysates were frozen at −20° C. overnight.
# Measurement of HMOX1 (“HO-1”) • 1. In a polypropylene 384 well plate, human HO-1(after reconstitution in PBS+0.5% Triton+1 mM EDTA) was serially diluted from 20 ng/ml 2-fold in PBS+0.5% triton-X100, 1 mM EDTA to make a 12-point standard curve including a zero point. • 2. In a polypropylene 96 well plate, HepG2 lysate was diluted 1 to 20 in Diluent #4 from DUOSET kit in which the assay standard is also diluted. • 3. The PBS+1% BSA was emptied from the ELISA plate and 30 μl of all samples and standards were added (duplicates recommended). The plate was incubated 90 minutes. • 4. Emptied plate and washed 4 times with PBST. • 5. Diluted HO-1 detection antibody to 200 ng/ml in PBS+1% BSA and added 30 μl to all wells. Incubated 90 minutes. • 6. Emptied plate and washed 4 times with PBST. • 7. Added 30 μl streptavidin HRP at 1/200 in PBS+1% BSA (stock streptavidin concentration not specified) to all wells. Incubated 30 minutes. • 8. Emptied plate and washed 4 times with PBST. • 9. Diluted Lumiglo reserve reagent two parts buffer to one part lumiglo substrate. Added 30 μl to all wells. Incubated 5 minutes. • 10. Measured chemiluminescence on spectramax M5 using 150 ms integration.
# Table 1 below lists EC50 and fold changes of human HMOX1 protein levels relative to DMSO control upon treatment with representative compounds.
row,Maximum Fold induction,Structure (SMILES)
1,26-40,"COCCNC(=O)c1ccc2c(c1)nc(Nc1nc3ccc(OCCO)cc3o1)n2C [Example 102, 2-((6-(2-hydroxyethoxy)benzo[d]oxazol-2-yl)amino)-N-(2-methoxyethyl)-1-methyl-1H-benzo[d]imidazole-5-carboxamide]"
2,17,"Cn1c(Nc2nc3ccc(C(C)(C)O)cc3o2)nc2cc(C(=O)NCCO)ccc21 [Example 133, N-(2-hydroxyethyl)-2-((6-(2-hydroxypropan-2-yl)benzo[d]oxazol-2-yl)amino)-1-methyl-1H-benzo[d]imidazole-5-carboxamide]"
3,39,"COCCONC(=O)c1ccc2c(c1)nc(Nc1nc3ccc(C(C)=O)cc3o1)n2C [Example 132, 2-((6-acetylbenzo[d]oxazol-2-yl)amino)-N-(2-methoxyethoxy)-1-methyl-1H-benzo[d]imidazole-5-carboxamide]"
4,36,"Cn1c(Nc2nc3ccc(N4CCOCC4)cc3o2)nc2cc(C(=O)NCCOCCO)ccc21 [Example 136, N-(2-(2-hydroxyethoxy)ethyl)-1-methyl-2-((6-morpholinobenzo[d]oxazol-2-yl)amino)-1H-benzo[d]imidazole-5-carboxamide]"
5,35-62,"CC1CCc2nc(Nc3nc4cc(C(=O)NOCCO)ccc4n3C)sc2C1 (stereo not drawn) [Example 131, N-(2-hydroxyethoxy)-1-methyl-2-((6-methyl-4,5,6,7-tetrahydrobenzo[d]thiazol-2-yl)amino)-1H-benzo[d]imidazole-5-carboxamide]"
6,32-38,"COCCNC(=O)c1ccc2c(c1)nc(Nc1nc3ccc(C4CC4)cc3o1)n2C [Example 116, 2-((6-cyclopropylbenzo[d]oxazol-2-yl)amino)-N-(2-methoxyethyl)-1-methyl-1H-benzo[d]imidazole-5-carboxamide]"
7,21,"Cn1c(Nc2nc3ccccc3o2)nc2cc(C(=O)C(F)(F)F)ccc21 [Example 139, 1-(2-(benzo[d]oxazol-2-ylamino)-1-methyl-1H-benzo[d]imidazol-5-yl)-2,2,2-trifluoroethan-1-one]"
8,26,"COCCNC(=O)c1ccc2c(c1)nc(Nc1nc3cccnc3o1)n2C [Example 109, N-(2-methoxyethyl)-1-methyl-2-(oxazolo[5,4-b]pyridin-2-ylamino)-1H-benzo[d]imidazole-5-carboxamide]"

# Second part, the molecule before the results:
row,Structure (SMILES),Maximum Fold induction
1,"CN1CCC(n2c(Nc3nc4ccc(OC(F)(F)F)cc4s3)nc3cc(C(=O)O)ccc32)C1 (stereo not drawn) [Example 4d, 1-(1-methylpyrrolidin-3-yl)-2-((6-(trifluoromethoxy)benzo[d]thiazol-2-yl)amino)-1H-benzo[d]imidazole-5-carboxylic acid]",29-33
2,"CN(C)CCNC(=O)c1ccc2c(c1)nc(Nc1nc3ccccc3o1)n2C [Example 21, 2-(benzo[d]oxazol-2-ylamino)-N-(2-(dimethylamino)ethyl)-1-methyl-1H-benzo[d]imidazole-5-carboxamide]",14
3,"COCCNC(=O)c1ccc2c(c1)nc(Nc1nc3ccc(OC(F)(F)F)cc3s1)n2C1CCN(C)CC1 [Example 3e, N-(2-methoxyethyl)-1-(1-methylpiperidin-4-yl)-2-((6-(trifluoromethoxy)benzo[d]thiazol-2-yl)amino)-1H-benzo[d]imidazole-5-carboxamide]",6-46
4,"Cn1c(Nc2nc3cc(C(F)(F)F)ccc3o2)nc2cc(C(=O)NCCOCCO)ccc21 [Example 43, N-(2-(2-hydroxyethoxy)ethyl)-1-methyl-2-((5-(trifluoromethyl)benzo[d]oxazol-2-yl)amino)-1H-benzo[d]imidazole-5-carboxamide]",56
5,"Cn1c(Nc2nc3ccc(C(F)(F)F)cc3o2)nc2cc(C(=O)NCCN3CCCCC3)ccc21 [Example 37, 1-methyl-N-(2-(piperidin-1-yl)ethyl)-2-((6-(trifluoromethyl)benzo[d]oxazol-2-yl)amino)-1H-benzo[d]imidazole-5-carboxamide]",28
6,"COCCNC(=O)c1ccc2c(c1)nc(Nc1nc3cc(Cl)ccc3[nH]1)n2C [Example 83, 2-((5-chloro-1H-benzo[d]imidazol-2-yl)amino)-N-(2-methoxyethyl)-1-methyl-1H-benzo[d]imidazole-5-carboxamide]",16-21
7,"CN(C)CC(=O)NCCNC(=O)c1ccc2c(c1)nc(Nc1nc3ccccc3o1)n2C [Example 19, 2-(benzo[d]oxazol-2-ylamino)-N-(2-(2-(dimethylamino)acetamido)ethyl)-1-methyl-1H-benzo[d]imidazole-5-carboxamide]",14-26
8,"O=C(NCCO)c1ccc2c(c1)nc(Nc1nc3ccc(OC(F)(F)F)cc3o1)n2CC1(O)COC1 [Example 95, N-(2-hydroxyethyl)-1-((3-hydroxyoxetan-3-yl)methyl)-2-((6-(trifluoromethoxy)benzo[d]oxazol-2-yl)amino)-1H-benzo[d]imidazole-5-carboxamide]",21
9,"Cn1c(Nc2nc3ccccc3o2)nc2cc(C(=O)NCCO)ccc21 [Example 16, 2-(benzo[d]oxazol-2-ylamino)-N-(2-hydroxyethyl)-1-methyl-1H-benzo[d]imidazole-5-carboxamide]",8-27
10,"Cn1c(Nc2nc3cc(Cl)ccc3[nH]2)nc2cc(C(=O)O)ccc21 [Example 82, 2-((5-chloro-1H-benzo[d]imidazol-2-yl)amino)-1-methyl-1H-benzo[d]imidazole-5-carboxylic acid]",29-33
11,"COCCNC(=O)c1ccc2c(c1)nc(Nc1nc3ccc(OC(F)(F)F)cc3o1)n2CCS(C)(=O)=O [Example 90, N-(2-methoxyethyl)-1-(2-(methylsulfonyl)ethyl)-2-((6-(trifluoromethoxy)benzo[d]oxazol-2-yl)amino)-1H-benzo[d]imidazole-5-carboxamide]",22
12,"COCCNC(=O)c1ccc2c(c1)nc(Nc1nc3cc(OC(F)(F)F)ccc3[nH]1)n2C1CCOCC1 [Example 81, N-(2-methoxyethyl)-1-(tetrahydro-2H-pyran-4-yl)-2-((5-(trifluoromethoxy)-1H-benzo[d]imidazol-2-yl)amino)-1H-benzo[d]imidazole-5-carboxamide]",19-30
13,"CN(C)CC(=O)NCCNC(=O)c1ccc2c(c1)nc(Nc1nc3ccc(OC(F)(F)F)cc3o1)n2C [Example 49, N-(2-(2-(dimethylamino)acetamido)ethyl)-1-methyl-2-((6-(trifluoromethoxy)benzo[d]oxazol-2-yl)amino)-1H-benzo[d]imidazole-5-carboxamide]",14-23
14,"COCCNC(=O)c1ccc2c(c1)nc(Nc1nc3ccc(F)cc3o1)n2C [Example 69, 2-((6-fluorobenzo[d]oxazol-2-yl)amino)-N-(2-methoxyethyl)-1-methyl-1H-benzo[d]imidazole-5-carboxamide]",13-36
15,"COCCNC(=O)c1ccc2c(c1)nc(Nc1nc3ccc(OC(F)F)cc3o1)n2C [Example 63, 2-((6-(difluoromethoxy)benzo[d]oxazol-2-yl)amino)-N-(2-methoxyethyl)-1-methyl-1H-benzo[d]imidazole-5-carboxamide]",11-15
16,"CN1CCC(n2c(Nc3nc4ccc(OC(F)(F)F)cc4s3)nc3cc(C(=O)O)ccc32)CC1 [Example 3d, 1-(1-methylpiperidin-4-yl)-2-((6-(trifluoromethoxy)benzo[d]thiazol-2-yl)amino)-1H-benzo[d]imidazole-5-carboxylic acid]",13

# Reference: US20240051952A1, “HMOX1 INDUCERS” (Mitobridge Inc., priority 2019, published 2024)
